Reference: paper PMC4551907, “Identification of human telomerase assembly inhibitors enabled by a novel method to produce hTERT” (Nucleic Acids Research, 2015)

Key:
hTERT [1] = molecular target: T1, hTERT (Homo sapiens, UniProt O14746); assay: RT-TRAP with recombinant telomerase ([…]); type: biochemical; design: gene TERT
hTERT [2] = molecular target: T1, hTERT; assay: RT-TRAP and direct telomerase assay with reconstituted purified hTERT + hTR; preincubation with hTERT vs hTR; dilution (reversibility) test; type: biochemical; design: gene TERT; MBP-hTERT, purified from P. pastoris

T1 sequence (O14746 whole entry): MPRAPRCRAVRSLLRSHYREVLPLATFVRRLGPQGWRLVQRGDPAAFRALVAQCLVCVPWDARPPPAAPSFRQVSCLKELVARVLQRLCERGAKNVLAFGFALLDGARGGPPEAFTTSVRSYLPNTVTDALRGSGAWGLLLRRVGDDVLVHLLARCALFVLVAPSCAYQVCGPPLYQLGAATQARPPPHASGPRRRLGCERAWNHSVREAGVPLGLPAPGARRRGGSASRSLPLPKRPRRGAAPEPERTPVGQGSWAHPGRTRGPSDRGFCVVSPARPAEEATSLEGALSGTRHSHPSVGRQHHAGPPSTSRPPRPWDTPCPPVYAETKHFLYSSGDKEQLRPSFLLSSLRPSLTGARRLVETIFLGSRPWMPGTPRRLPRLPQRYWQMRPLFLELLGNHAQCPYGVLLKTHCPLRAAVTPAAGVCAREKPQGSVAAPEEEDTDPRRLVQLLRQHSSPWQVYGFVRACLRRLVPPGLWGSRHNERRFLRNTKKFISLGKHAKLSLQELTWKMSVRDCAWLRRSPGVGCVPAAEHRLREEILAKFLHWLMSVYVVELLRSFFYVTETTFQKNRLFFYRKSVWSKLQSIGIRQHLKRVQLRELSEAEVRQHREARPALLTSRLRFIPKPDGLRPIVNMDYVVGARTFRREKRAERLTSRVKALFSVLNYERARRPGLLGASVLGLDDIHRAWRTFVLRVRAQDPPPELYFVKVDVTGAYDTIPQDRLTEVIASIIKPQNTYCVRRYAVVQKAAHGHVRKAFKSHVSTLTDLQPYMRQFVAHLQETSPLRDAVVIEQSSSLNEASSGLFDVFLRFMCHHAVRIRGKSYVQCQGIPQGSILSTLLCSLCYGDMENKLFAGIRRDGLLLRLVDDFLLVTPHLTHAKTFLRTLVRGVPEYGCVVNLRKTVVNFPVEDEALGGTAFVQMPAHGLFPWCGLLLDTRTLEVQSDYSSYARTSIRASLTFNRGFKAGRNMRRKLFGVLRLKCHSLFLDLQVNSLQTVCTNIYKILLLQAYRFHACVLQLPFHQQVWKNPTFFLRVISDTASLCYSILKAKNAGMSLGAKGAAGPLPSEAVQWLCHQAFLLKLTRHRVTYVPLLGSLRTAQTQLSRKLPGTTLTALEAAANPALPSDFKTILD

SMILES | IC50 (hTERT [1]) [nM] | IC50 (hTERT [2]) [nM]
C/C(=C\C(=O)Nc1ccccc1C(=O)O)c1ccc2ccccc2c1 [BIBR1532] | ~80 | –
NC1CC(N)C(O[C@H]2O[C@H](CNC(=O)[C@@H](N)CCCCNCc3ccc4nc5ccc6nc7ccccc7cc6c5cc4c3)[C@@H](O)C[C@H]2N)C(O)C1O[C@H]1O[C@H](CO)[C@@H](O)[C@H](N)[C@H]1O (some centres unmarked) [TAI1] | – | 500 ± 200
